Assay results reported in paper PMC10454396 (International Journal of Molecular Sciences, 2023).
Converted amounts (≈) assume the structure as drawn.

Columns and labels:
[1] = tested on: Staphylococcus aureus Newman mCherry; experiment: MIC, broth microdilution, mCherry-expressing S. aureus Newman; format: cell-based; conditions: Staphylococcus aureus, NEWMAN
Protocol: Cefazolin was obtained from Acros Organics. Ciprofloxacin hydrochloride, linezolid and vancomycin hydrochloride were obtained from Sigma-Aldrich (St. Louis, MO, USA). Tetracycline hydrochloride was obtained from Alfa Aesar. Sorangicin A was provided by HZI, Braunschweig. Stock solutions were prepared in Milli-Q water or dimethyl sulfoxide (DMSO, Sigma-Aldrich). Minimum inhibitory concentrations (MICs) were determined in cation-adjusted Mueller-Hinton broth (MHB2) using the broth microdilution method as recommended by the Clinical and Laboratory Standards Institute (CLSI). The MIC was defined as the lowest concentration of the antibiotic causing complete inhibition of visible growth of the microorganism (CLSI, 2017).
1. In vitro characterization of mCherry expressing Staphylococcus aureus Newman
1.1 Minimum inhibitory concentration
Table S1. Antibiotic susceptibility profile of Staphylococcus aureus Newman. WT: wild type. […]

[2] = Phase I metabolic stability, rat liver microsomes; format: in vitro ADME; conditions: pooled liver microsomes, pH 7.4
Protocol: (§1) For the evaluation of phase I metabolic stability, the compound (1 µM) was incubated with 0.5 mg/mL pooled mouse/rat liver microsomes (Xenotech, Kansas City, MO, USA) or human liver microsomes (Corning, NY, USA), 2 mM NADPH and 10 mM MgCl2 at pH 7.4 for 120 min at 37 °C. The metabolic stability of testosterone, verapamil and ketoconazole were determined in parallel to confirm the enzymatic activity of mouse/rat liver microsomes; for human liver microsomes testosterone, diclofenac and propranolol were used. The incubation was stopped after defined time points by precipitation of aliquots of the assay mixture with two volumes of ice-cold acetonitrile containing internal standard (15 nM diphenhydramine). Samples were stored on ice until the end of the incubation and precipitated protein was removed by centrifugation (15 min, 4 °C, 4000× g).

[3] = Phase I metabolic stability, human liver microsomes; format: in vitro ADME; conditions: pH 7.4
Protocol: as §1

in vitro = in vitro ADME; conditions: read-out: Plasma Stability t1/2
Protocol: To determine stability in plasma, a similar setup as for the determination of metabolic stability was applied using pooled mouse, human or rat plasma (Neo Biotech, Nanterre, France). Samples were taken by mixing aliquots with four volumes of ice cold acetonitrile containing internal standard (12.5 nM diphenhydramine). The plasma stability of procain, propantheline and diltiazem were determined in parallel to confirm the enzymatic activity.

[4] = Plasma protein binding (RED), rat plasma; format: in vitro ADME; conditions: Wistar, pooled plasma, pH 7.4, rat plasma
Protocol: (§2) Plasma protein binding was determined using the Rapid Equilibrium Dialysis (RED) system (Thermo Fisher Scientific, Waltham, MA, USA). The compound was diluted in pooled murine (CD-1)/human or Wistar rat plasma (Neo Biotech, Nanterre, France) to 10 µM and added to the respective chamber according to the manufacturer’s protocol, followed by addition of PBS pH 7.4 to the opposite chamber. Samples were taken immediately after addition to the plate as well as after 2, 4 and 5 h by mixing 10 µL with 80 µL ice-cold acetonitrile containing 12.5 nM diphenhydramine as internal standard, followed by addition of 10 µL plasma to samples taken from PBS and vice versa. Samples were stored on ice until the end of the incubation and precipitated protein was removed by centrifugation (15 min, 4 °C, 4000× g, 2 centrifugation steps). Concentration of the remaining test compound at the different time points was analyzed by HPLC-MS/MS (TSQ Altis Plus, Thermo Fisher, Dreieich, Germany). The amount of compound bound to protein was calculated using the equation PPB [%] = 100 − 100 × (amount in buffer chamber/amount in plasma chamber).

[5] = Plasma protein binding (RED), human plasma; format: in vitro ADME; conditions: pooled plasma, pH 7.4, human plasma
Protocol: as §2

[6] = In vivo pharmacokinetics in male CD-1 mice, i.v.; set-up: species or system mouse; conditions: 5 mg/kg i.v.
Protocol: Pharmacokinetic evaluation of sorangicin A in mice was carried out by Pharmacelsus GmbH (Saarbrücken, Germany). All mouse experiments were approved by and conducted in accordance with the regulations of the local Animal Welfare authorities. Nine adult male CD-1 mice (purchased from Janvier Labs, Le Genest-Saint-Isle, France) were used. Animals were housed in a separate temperature-controlled room (20–24 °C) and maintained in a 12 h light/12 h dark cycle. […] Retrobulbar blood samples were collected from three animals at 0.083, 0.25, 0.5, 1, 3 and 7 h after i.v. administration (two time points/ animal). At each of the designated time points 100 µL blood was collected from the eye into lithium heparin tubes. Quantification of sorangicin A in the generated plasma was performed by LC-MS/MS analysis. The pharmacokinetic analysis was performed by applying a non-compartment model using the Kinetica 5.0 software (Thermo Scientific, Waltham, MA, USA). All given parameters were obtained by trapezoid area calculation.

[7] = set-up: method as in unpublished data from GBF; conditions: ref unpublished data from GBF; cited from earlier work
[8] = 10 µM, read-out: PPB (converted)

Work on C/C(=C\[C@H](C)CCCCC(=O)O)[C@@H]1O[C@@H]2C=C[C@H]1OC(=O)\C=C/C=C\C=C\[C@H]1O[C@@H]3C[C@H]1O[C@@H](/C=C/C[C@H]1O[C@H](C[C@H](O)[C@H]1C)[C@@H](O)[C@@H](O)/C=C/CC/C=C/C2)[C@@H]3C [sorangicin A] yielded an MIC [1] of 0.0625 µg/mL (≈ 0.0774 µM), a microsomal CLint at 1 µM [2] of 239 ± 155 µL/min/mg and a microsomal CLint at 1 µM [3] of 90.4 ± 16.5 µL/min/mg. The half-life (in vitro; human plasma) was > 4 h, the half-life at 1 µM (in vitro; rat plasma) was > 4 h and the fraction unbound at 10 µM [4, 8] was 0.112. For the same compound, the fraction unbound at 10 µM ([4]; read-out: free fraction) was > 0.1, the fraction unbound at 10 µM [5, 8] was 0.13 and the fraction unbound at 10 µM ([5]; read-out: free fraction) was > 0.1. For the same compound, the “cZ (last measured blood concentration)” value [6] was 7.2 ng/mL, the “time plasma levels maintained above the MIC of S. aureus” value [6] was “less than 30 min” and the AUC(0-t) ([6]; mouse, plasma, iv) was 341 ng·h/mL. The clearance ([6]; mouse, plasma, iv, read-out: CL (total clearance) (converted)) was 238 mL/min/kg, the Vd ([6]; mouse, plasma, iv, read-out: Vz) was 18 L/kg and the C0 ([6]; mouse, plasma, iv, read-out: c0 (maximum blood concentration, extrapolated time point zero)) was 1830 ng/mL. The half-life ([6]; mouse, plasma, iv, read-out: t1/2 (terminal phase) (converted)) was 0.87 h and the “outcome in experimental infection models in rats” value [7] was “successful”.
